In patent publication US20260285834A1, “SUBSTITUTED PYRIDINE DERIVATIVES AS SARM1 INHIBITORS” (Nura Bio, Inc., priority 2022, published 2026):
Counter-ions that a name gives are not always drawn. Like-named read-outs stand apart in the source and are kept apart here.

Target: T1, human SARM1(50-724) (Homo sapiens, UniProt Q6SZW1)
T1 construct: 40 nM human SARM1(50-724)
T1 sequence (Q6SZW1 50-724): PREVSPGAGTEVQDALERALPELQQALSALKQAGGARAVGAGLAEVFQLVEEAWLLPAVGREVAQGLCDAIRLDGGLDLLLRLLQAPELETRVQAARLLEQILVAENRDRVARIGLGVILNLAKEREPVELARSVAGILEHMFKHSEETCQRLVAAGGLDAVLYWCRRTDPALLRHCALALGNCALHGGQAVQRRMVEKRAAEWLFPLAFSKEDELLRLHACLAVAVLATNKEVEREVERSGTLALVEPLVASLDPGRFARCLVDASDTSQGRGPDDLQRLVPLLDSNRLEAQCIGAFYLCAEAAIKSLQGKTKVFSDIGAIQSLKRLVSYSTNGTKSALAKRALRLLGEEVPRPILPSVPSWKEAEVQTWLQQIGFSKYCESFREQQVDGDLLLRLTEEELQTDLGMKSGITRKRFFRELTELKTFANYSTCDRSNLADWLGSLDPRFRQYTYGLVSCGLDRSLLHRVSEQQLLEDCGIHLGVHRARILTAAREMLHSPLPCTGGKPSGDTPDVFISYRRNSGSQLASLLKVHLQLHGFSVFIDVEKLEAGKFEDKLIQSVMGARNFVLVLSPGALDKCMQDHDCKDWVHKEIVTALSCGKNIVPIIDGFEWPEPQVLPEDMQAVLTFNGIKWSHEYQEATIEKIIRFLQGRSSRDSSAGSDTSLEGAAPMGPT
Experiment: SARM1 biological assay: HPLC measurement of NAD and NAM peak areas
Format: biochemical
Experimental: Each reaction was run at a volume of 20 μL containing 50 μM compound (dissolved in DMSO; final concentration of DMSO is 1% v/v), 40 nM human SARM1(50-724), 0.3 mM NMN, 20 μM NAD, 1 mM TCEP, 25 mM HEPES pH 7.4, 10 mM KCl and 10 mM MgCl2. The reaction was incubated at room temperature for 60 minutes and quenched with 20 μL of 0.4% formic acid. The samples were run on Agilent HPLC 1260 Infinity II with Synergi 2.5 μM Fusion-RP 100 Å (100×3.0 mm) LC column from Phenomenex. Total run time for each sample was 4 minutes. The run was isocratic with 1.5% methanol in 40 mM ammonium acetate pH 6.0. Samples were run at a flow rate of 0.8 mL/min at 55° C. Peak areas of NAD and NAM were determined using OpenLAB CDS (Chem Station edition) software. For dose-response, the compound was diluted serially 1:3 in DMSO and added to the reaction starting at a final compound concentration of 100 μM in 1% DMSO.

[1] = 40 nM human SARM1(50-724), 0.3 mM NMN, 20 μM NAD, 60 min at room temperature, dose-response 1:3 serial dilution from 100 μM, read-out: Average IC50

| SMILES | IC50 [1] [nM] | IC50 [nM] |
| --- | --- | --- |
| N#C[C@H]1C[C@@H](c2nc(Cc3ccncc3)c[nH]2)C1 [Example 35A] | 1000 to 10000 | – |
| FC1(F)C[C@H]1Cc1nc(Cc2ccncc2)c[nH]1 (single isomer, unassigned) [Example 21B] | – | < 1000 |
| FC(F)(F)[C@H]1CCO[C@H]1c1nc(Cc2ccncc2)c[nH]1 (relative stereo) [Example 27, (cis)-4-((2-(3-(trifluoromethyl)tetrahydrofuran-2-yl)-1H-imidazol-4-yl)methyl)pyridine] | – | 10000 to 100000 |
| FC1(F)CC1c1nc(Cc2ccncc2)c[nH]1 (single isomer, unassigned) [Example 5A] | – | < 1000 |
| Fc1cnccc1Cc1c[nH]c(C2CCC(F)(F)C2)n1 (centres unmarked) [Example 18A, 4-((2-(3,3-Difluorocyclopentyl)-1H-imidazol-4-yl)methyl)-3-fluoropyridine] | – | 1000 to 10000 |
| FC1(F)CC(c2nc(Cc3ccncc3)c[nH]2)C1 [Example 15A, 4-((2-(3,3-Difluorocyclobutyl)-1H-imidazol-4-yl)methyl)pyridine] | – | < 1000 |
| FC(F)(F)C1(Cc2nc(Cc3ccncc3)c[nH]2)CC1 [Example 25] | – | < 1000 |
| FC(F)(F)[C@H]1C[C@H](c2nc(Cc3ccncc3)c[nH]2)C1 (single isomer, unassigned) [Example 31B, (trans)-4-((2-(3-(Trifluoromethyl)cyclobutyl)-1H-imidazol-4-yl)methyl)pyridine] | – | 1000 to 10000 |
| F[C@]1(Cl)C[C@@H]1c1nc(Cc2ccncc2)c[nH]1 (single isomer, unassigned) [Example 39B] | – | < 1000 |
| Fc1cnccc1Cc1c[nH]c(C2CCC(F)(F)CC2)n1 [Example 17A, 4-((2-(4,4-Difluorocyclohexyl)-1H-imidazol-4-yl)methyl)-3-fluoropyridine] | – | 1000 to 10000 |
| FC1(F)CCC(c2nc(Cc3ccncc3)c[nH]2)CC1 [Example 13, 4-((2-(4,4-Difluorocyclohexyl)-1H-imidazol-4-yl)methyl)pyridine] | – | 1000 to 10000 |
| FC1(F)CC1Cc1nc(Cc2ccncc2)co1 (centres unmarked) [Example 20B, 2-((2,2-Difluorocyclopropyl)methyl)-4-(pyridine-4ylmethyl)oxazole] | – | 10000 to 100000 |
| FC1(F)CN(Cc2nc(Cc3ccncc3)c[nH]2)C1 [Example 7] | – | 1000 to 10000 |
| OC1(c2nc(Cc3ccncc3)c[nH]2)CCC(F)(F)CC1 [Example 12] | – | 1000 to 10000 |
| FC1(F)CN(c2nc(Cc3ccncc3)c[nH]2)C1 [Example 2, 4-((2-(3,3-Difluoroazetidin-1-yl)-1H-imidazol-4-yl)methyl)pyridine] | – | 1000 to 10000 |
| CC1(F)CC(c2nc(Cc3ccncc3)c[nH]2)C1 (centres unmarked) [Example 9, 4-((2-(3-Fluoro-3-methylcyclobutyl)-1H-imidazol-4-yl)methyl)pyridine] | – | < 1000 |
| F[C@H]1C[C@H](c2nc(Cc3ccncc3)c[nH]2)C1 [Example 30, (trans)-4-((2-(3-Fluorocyclobutyl)-1H-imidazol-4-yl)methyl)pyridine] | – | 1000 to 10000 |
| N#CC1(F)CC(c2nc(Cc3ccncc3)c[nH]2)C1 (centres unmarked) [Example 38A] | 1000 to 10000 | – |
| OC1(C(F)(F)F)CC(c2nc(Cc3ccncc3)c[nH]2)C1 (centres unmarked) [Example 8, 3-(4-(Pyridin-4-ylmethyl)-1H-imidazol-2-yl)-1-(trifluoromethyl)cyclobutan-1-ol] | – | 1000 to 10000 |
| C[C@@H](c1ccncc1)c1c[nH]c(C(=O)C(F)(F)F)n1 (single isomer, unassigned) [Example 23B, hydrochloride] | – | 1000 to 10000 |
| F[C@]1(Cl)C[C@H]1c1nc(Cc2ccncc2)c[nH]1 (single isomer, unassigned) [Example 39D] | – | < 1000 |
| CC(c1ccncc1)c1c[nH]c(C(=O)C(F)(F)F)n1 (racemic) [Example 22, 2,2,2-Trifluoro-1-(4-(pyridine-4-yl)ethyl)-1H-imidazol-2-yl)ethan-1-one hydrochloride] | – | < 1000 |
| FC(F)(F)[C@H]1C[C@@H](c2nc(Cc3ccncc3)c[nH]2)C1 (single isomer, unassigned) [Example 31A, (cis)-4-((2-(3-(Trifluoromethyl)cyclobutyl)-1H-imidazol-4-yl)methyl)pyridine] | – | 1000 to 10000 |
| ClC1CC(c2nc(Cc3ccncc3)c[nH]2)C1 (centres unmarked) [Example 34, 4-((2-(3-Chlorocyclobutyl)-1H-imidazol-4-yl)methyl)pyridine] | – | < 1000 |

| SMILES | IC50 [1] [nM] | IC50 [nM] |
| --- | --- | --- |
| FC1(F)CNC(c2nc(Cc3ccncc3)c[nH]2)C1 (centres unmarked) [Example 32, 4-((2-(4,4-Difluoropyrrolidin-2-yl)-1H-imidazol-4-yl)methyl)pyridine] | – | 1000 to 10000 |
| FC1(F)CC(c2nc(Cc3ccncc3)co2)C1 [Example 15B, 2-(3,3-Difluorocyclobutyl)-4-(pyridin-4-ylmethyl)oxazole] | – | 10000 to 100000 |
| FC(F)(F)C1(c2nc(Cc3ccncc3)c[nH]2)CC1 [Example 16] | – | 1000 to 10000 |
| C[C@@]1(c2nc(Cc3ccncc3)c[nH]2)CC1(F)F (single isomer, unassigned) [Example 10B] | – | < 1000 |
| ClC1(Cl)CC(c2nc(Cc3ccncc3)c[nH]2)C1 [Example 19A, 4-((2-(3,3-Dichlorocyclobutyl)-1H-imidazol-4-yl)methyl)pyridine] | – | < 1000 |
| Fc1cnccc1Cc1coc(C2CC(F)(F)C2)n1 [Example 4A, 2-(3,3-Difluorocyclobutyl)-4-((3-fluoropyridin-4-yl)methyl)oxazole] | – | 10000 to 100000 |
| ClC1(Cl)C[C@@H]1c1nc(Cc2ccncc2)c[nH]1 (single isomer, unassigned) [Example 33A] | – | < 1000 |
| FC(F)(F)O[C@H]1C[C@@H](c2nc(Cc3ccncc3)c[nH]2)C1 [Example 37A, (cis)-4-((2-(3-(Trifluoromethoxy)cyclobutyl)-1H-imidazole-4-yl)methyl)pyridine] | – | < 1000 |
| FC1(F)CC1(F)c1nc(Cc2ccncc2)c[nH]1 (centres unmarked) [Example 40, 4-((2-(1,2,2-Trifluorocyclopropyl)-1H-imidazol-4-yl)methyl)pyridine] | – | < 1000 |
| FC1(Cl)CC1c1nc(Cc2ccncc2)c[nH]1 (centres unmarked) [Example 39, 4-((2-(2-Chloro-2-fluorocyclopropyl)-1H-imidazol-4-yl)methyl)pyridine] | – | < 1000 |
| N#CC1CC(c2nc(Cc3ccncc3)c[nH]2)C1 [Example 35B, (trans)-(1S, 3S)-3-(4-Pyridin-4ylmethyl)-1H-imidazol-2-yl)cyclobutane-1-carbonitrile] | – | < 1000 |
| Fc1cnccc1Cc1coc(C2CCC(F)(F)C2)n1 (centres unmarked) [Example 18B, 2-(3,3-Difluorocyclopentyl)-4-((3-fluoropyridin-4-yl)methyl)oxazole] | – | 10000 to 100000 |
| Fc1cnccc1Cc1c[nH]c(C2CC(F)(F)C2)n1 [Example 4, 4-((2-(3,3-Difluorocyclobutyl)-1H-imidazol-4-yl)methyl)-3-fluoropyridine] | – | < 1000 |
| F[C@@]1(Cl)C[C@@H]1c1nc(Cc2ccncc2)c[nH]1 (single isomer, unassigned) [Example 39A] | – | < 1000 |
| FC1(F)CCN(c2nc(Cc3ccncc3)c[nH]2)C1 [Example 3] | – | 1000 to 10000 |
| F[C@@]1(Cl)C[C@H]1c1nc(Cc2ccncc2)c[nH]1 (single isomer, unassigned) [Example 39C] | – | < 1000 |
| C[C@H](c1ccncc1)c1c[nH]c(C(=O)C(F)(F)F)n1 (single isomer, unassigned) [Example 23A, hydrochloride] | – | < 1000 |
| FC1(F)CC(Cc2nc(Cc3ccncc3)c[nH]2)C1 [Example 24, 4-((2-((3,3-Difluorocyclobutyl)methyl)-1H-imidazol-4-yl)methyl)pyridine] | – | 1000 to 10000 |
| FC1(F)CCN(c2nc(Cc3ccncc3)c[nH]2)CC1 [Example 1] | – | 1000 to 10000 |
| C[C@]1(c2nc(Cc3ccncc3)c[nH]2)CC1(F)F (single isomer, unassigned) [Example 10A] | – | < 1000 |
| Fc1cnccc1Cc1c[nH]c(C2CC2(F)F)n1 (centres unmarked) [Example 14, 4-((2-(2,2-Difluorocyclopropyl)-1H-imidazol-4-yl)methyl)-3-fluoropyridine] | – | < 1000 |
| ClC1(Cl)C[C@H]1c1nc(Cc2ccncc2)c[nH]1 (single isomer, unassigned) [Example 33B] | – | < 1000 |
| ClC1(Cl)CC(c2nc(Cc3ccncc3)co2)C1 [Example 19B, 2-(3,3-Dichlorocyclobutyl)-4-(pyridine-4-ylmethyl)oxazole] | – | 1000 to 10000 |
